Results as given in paper PMC9505425, “Targeting of the Mitochondrial TET1 Protein by Pyrrolo[3,2-b]pyrrole Chelators” (International Journal of Molecular Sciences, 2022).
“And” between values parts separate entries of the source, which are not always exact repeats. Equal values may be shown once.

Columns and labels:
Format in all cases: cell-based, human
U-118 MG cells = test: MTT cytotoxicity assay, U-118 MG; conditions: 48 h
Experimental: (§1) The effects of the tested compounds 1–6 on HF-P4, U-118 MG, H1299, BT-20, and Caov-3 cell lines were evaluated by the MTT assay during 48 h treatment (Table 2 and Tables S2–S31). In all tested compounds, we recognized a difference in cytotoxicity between healthy cells (HF-P4) and cancer cell lines (BT-20, Caov-3, and H-1299). […] In the case of ovarian cancer, the authors discovered oncogenic and poor prognosis roles of TET1 in epithelial ovarian carcinoma (EOC). TET1 is believed to demethylate the epigenome and activate numerous oncogenic pathways in EOC. The aforementioned study presents a new mechanism where TET1 contributes to tumor development through collaboration with CK2α [21]. The overexpression of the TET1 protein was also found in triple negative breast cancer and was associated with an activation of PI3K/mTOR pathway and decreased overall survival.
(§2) A human glioblastoma cell line (U118-MG) and a human non-small-cell lung carcinoma cell line (H1299) were used for the cytotoxicity assay (MTT). Both cell lines were generously supplied by Dr. M. Masařik, PhD, Department of Pathological physiology, Masaryk University, Czech Republic. U118-MG cells were cultivated under standard conditions in Dulbecco’s modified Eagle’s medium (ATCC, Manassas, VA, USA) supplemented with 10% FBS and streptomycin (100 μg/mL) at 37 °C at a 5% CO2 atmosphere. H1299 cells were cultivated under standard conditions in RPMI 1640 (BioTech, Prague, Czech Republic) medium supplemented with 10% FBS and streptomycin (100 μg/mL) at 37 °C at a 5% CO2 atmosphere.
(§3) For the cytotoxicity assay, we used the following cell lines: human glioblastoma cell line U118-MG, human mammary gland/breast cell line BT-20, human ovary adenocarcinoma cell line Caov-3, and non-small-cell lung carcinoma H-1299. As previously mentioned, these cell lines contain a high level of the TET1 protein, which corresponds to a lower overall survival. In addition to these cell cultures, we used the human dermal fibroblast cell line HF-P4 as a healthy control. Determination of cytotoxicity was performed using the MTT [3-(4,5-dimethylthiazol-2-yl)-2,5-diphenyltetrazolium bromide] colorimetric assay. Viable cells from each cell line were cultured in 96-well plates (VWR, Stříbrná Skalice, Czech Republic) at a density of 1.0 × 10^5 cells per well and allowed to grow for 24 h in 200 μL of recommended medium. After a 1-day incubation, the medium was replaced with solutions of compounds 1–6 at concentration ranges of 0.1–20 μM. Each concentration was measured four times within one test, and the entire test was repeated three times. Tested compounds 1–6 were dissolved in DMSO and then diluted with corresponding medium to a final volume of 200 μL (maximum 1% DMSO). After 48 h exposure, cells were treated with 175 μL of MTT solution (P-LAB, Prague, Czech Republic) for 2 h. In the next step, MTT solution was removed, and 125 μL of DMSO (Penta, Prague, Czech Republic) was added to solubilize dark crystals of formazan formed in intact cells, and absorbance was measured at 570 nm by the enzyme-linked immunoabsorbent assay reader Infinite® 200 PRO (Tecan, Männedorf, Switzerland). The final DMSO concentration was smaller than 1% (v/v). The absorbance of untreated cells was considered 100%, and IC50 values were calculated by the GraphPad Prism 8 software. As a parameter for cytotoxicity, we used a concentration that inhibits 50% of cell growth (IC50).

H-1299 cells = test: MTT cytotoxicity assay, H-1299
Experimental: as §1, §2, §3

HF-P4 cells = test: MTT cytotoxicity assay, HF-P4; conditions: 48 h; for Cell viability %: repeats
Experimental: as §1
(§4) A human dermal fibroblast cell line was used for intracellular localization and cytotoxicity assay (MTT). Human fibroblast cells HF-P4 (human fibroblasts—patient 4) are normal dermal fibroblasts, which were obtained from the residual skin of a healthy patient who underwent plastic surgery (with informed consent of the patient). HF-P4 cell lines were obtained from the Department of Plastic Surgery, Third Faculty of Medicine, Charles University and University Hospital Královské Vinohrady, Prague, Czech Republic, as described by Szabo et al., 2011, and Dvořánková et al., 2019 [88, 89], and have been processed in accordance with the relevant local ethics committee and the Declaration of Helsinki protection of patients’ rights and benefits with written and signed informed consent of each patient. Cells were cultivated under standard conditions in Dulbecco’s modified Eagle’s medium (ATCC, Manassas, VA, USA), supplemented with 10% FBS and streptomycin (100 μg/mL) at 37 °C at a 5% CO2 atmosphere.
as §3

[1] = MTT cytotoxicity assay, HF-P4; conditions: human, HF-P4 normal human dermal fibroblasts, repeats, read-out: Cell viability %
Experimental: as §1, §4, §3

Question: Which viability at 0.1 µM (U-118 MG cells; Homo sapiens, U-118-MG, U-118 MG, 100 nM, repeats, read-out: Cell viability %) does the source give for Cc1ccc(-n2c(-c3ccc(C(=O)N/N=C/c4ccccc4O)cc3)cc3c2cc(-c2ccc(C(=O)N/N=C/c4ccccc4O)cc2)n3-c2ccc(C)cc2)cc1 [Compound 6] here?
Answer: 98.1%

Question: And the viability at 0.5 µM (U-118 MG cells; Homo sapiens, U-118-MG, U-118 MG, 500 nM, repeats, read-out: Cell viability %)?
Answer: 73.5%

Question: What about the viability at 0.75 µM (U-118 MG cells; Homo sapiens, U-118-MG, U-118 MG, 750 nM, repeats, read-out: Cell viability %) of the same molecule?
Answer: 67.2%

Question: And the viability at 1 µM (U-118 MG cells; Homo sapiens, U-118-MG, U-118 MG, 1 uM, repeats, read-out: Cell viability %)?
Answer: 68.4%

Question: What about the viability at 2.5 µM (U-118 MG cells; Homo sapiens, U-118-MG, U-118 MG, 2.5 uM, repeats, read-out: Cell viability %) of the same molecule?
Answer: 63%

Question: What about the viability at 5 µM (U-118 MG cells; Homo sapiens, U-118-MG, U-118 MG, 5 uM, repeats, read-out: Cell viability %) of the same molecule?
Answer: 59%

Question: What about the viability at 7.5 µM (U-118 MG cells; Homo sapiens, U-118-MG, U-118 MG, 7.5 uM, repeats, read-out: Cell viability %) of the same molecule?
Answer: 45.9%

Question: And the viability at 10 µM (U-118 MG cells; Homo sapiens, U-118-MG, U-118 MG, 10 uM, repeats, read-out: Cell viability %)?
Answer: 49.6%

Question: And the viability at 15 µM (U-118 MG cells; Homo sapiens, U-118-MG, U-118 MG, 15 uM, repeats, read-out: Cell viability %)?
Answer: 28%

Question: And the viability at 20 µM (U-118 MG cells; Homo sapiens, U-118-MG, U-118 MG, 20 uM, repeats, read-out: Cell viability %)?
Answer: 22.5%

Question: What about the IC50 (U-118 MG cells; Homo sapiens, U-118-MG, MTT) of the same molecule?
Answer: 8.12 µM

Question: And the Cell viability % (U-118 MG cells; U-118 MG, 100 nM, repeats, 0.1 µM)?
Answer: 91.37% and 92.92%

Question: And the Cell viability % (U-118 MG cells; U-118 MG, 500 nM, repeats, 0.5 µM)?
Answer: 83.7778% and 86.55%

Question: And the Cell viability % (U-118 MG cells; U-118 MG, 750 nM, repeats, 0.75 µM)?
Answer: 73.07% and 81.93%

Question: What about the Cell viability % (U-118 MG cells; U-118 MG, 1 uM, repeats) of the same molecule?
Answer: 80.41% and 81.53%

Question: What about the Cell viability % (U-118 MG cells; U-118 MG, 2.5 uM, repeats) of the same molecule?
Answer: 69.75% and 76.68%

Question: What about the Cell viability % (U-118 MG cells; U-118 MG, 5 uM, repeats) of the same molecule?
Answer: 63.22% and 58.23%

Question: What about the Cell viability % (U-118 MG cells; U-118 MG, 7.5 uM, repeats) of the same molecule?
Answer: 45.4% and 56.877%

Question: What about the Cell viability % (U-118 MG cells; U-118 MG, 10 uM, repeats) of the same molecule?
Answer: 51.17% and 52.19%

Question: What about the Cell viability % (U-118 MG cells; U-118 MG, 15 uM, repeats) of the same molecule?
Answer: 29.06% and 32.78%

Question: What about the Cell viability % (U-118 MG cells; U-118 MG, 20 uM, repeats) of the same molecule?
Answer: 18.64% and 22.51%

Question: And the Cell viability % (H-1299 cells; H-1299, 100 nM, 48 h, repeats, 0.1 µM)?
Answer: 77.16% and 73.27%

Question: What about the Cell viability % (H-1299 cells; H-1299, 500 nM, 48 h, repeats, 0.5 µM) of the same molecule?
Answer: 69.88% and 74.98%

Question: And the Cell viability % (H-1299 cells; H-1299, 750 nM, 48 h, repeats, 0.75 µM)?
Answer: 83.61% and 74.75%

Question: And the Cell viability % (H-1299 cells; H-1299, 1 uM, 48 h, repeats, 1 µM)?
Answer: 86.38% and 69.89% and 61.2%

Question: And the Cell viability % (H-1299 cells; H-1299, 2.5 uM, 48 h, repeats, 2.5 µM)?
Answer: 77.45% and 63.25% and 56.68%

Question: And the Cell viability % (H-1299 cells; H-1299, 5 uM, 48 h, repeats, 5 µM)?
Answer: 69.4% and 77.63% and 53.79%

Question: And the Cell viability % (H-1299 cells; H-1299, 7.5 uM, 48 h, repeats, 7.5 µM)?
Answer: 53.98% and 50.36%

Question: And the Cell viability % (H-1299 cells; H-1299, 10 uM, 48 h, repeats, 10 µM)?
Answer: 52.11% and 46.79%

Question: And the Cell viability % (H-1299 cells; H-1299, 15 uM, 48 h, repeats, 15 µM)?
Answer: 36.42% and 29.24%

Question: What about the Cell viability % (H-1299 cells; H-1299, 20 uM, 48 h, repeats, 20 µM) of the same molecule?
Answer: 33.42% and 31.6%

Question: What about the viability at 0.1 µM (H-1299 cells; Homo sapiens, NCI-H1299, 48 h, H-1299, 100 nM, repeats, read-out: Cell viability %) of the same molecule?
Answer: 74.6%

Question: What about the viability at 0.5 µM (H-1299 cells; Homo sapiens, NCI-H1299, 48 h, H-1299, 500 nM, repeats, read-out: Cell viability %) of the same molecule?
Answer: 82%

Question: And the viability at 0.75 µM (H-1299 cells; Homo sapiens, NCI-H1299, 48 h, H-1299, 750 nM, repeats, read-out: Cell viability %)?
Answer: 90.2%

Question: And the viability at 7.5 µM (H-1299 cells; Homo sapiens, NCI-H1299, 48 h, H-1299, 7.5 uM, repeats, read-out: Cell viability %)?
Answer: 63.7%

Question: What about the viability at 10 µM (H-1299 cells; Homo sapiens, NCI-H1299, 48 h, H-1299, 10 uM, repeats, read-out: Cell viability %) of the same molecule?
Answer: 54.8%

Question: And the viability at 15 µM (H-1299 cells; Homo sapiens, NCI-H1299, 48 h, H-1299, 15 uM, repeats, read-out: Cell viability %)?
Answer: 38.7%

Question: And the viability at 20 µM (H-1299 cells; Homo sapiens, NCI-H1299, 48 h, H-1299, 20 uM, repeats, read-out: Cell viability %)?
Answer: 34.4%

Question: And the IC50 (H-1299 cells; Homo sapiens, NCI-H1299, MTT, 48 h)?
Answer: 14.6 µM

Question: And the Cell viability % (HF-P4 cells; HF-P4, 100 nM, 0.1 µM)?
Answer: 114.4851% and 90.24% and 95.4%

Question: What about the Cell viability % (HF-P4 cells; HF-P4, 500 nM, 0.5 µM) of the same molecule?
Answer: 95.79% and 101.8289%

Question: And the Cell viability % (HF-P4 cells; HF-P4, 750 nM, 0.75 µM)?
Answer: 92.17% and 90.68%

Question: What about the Cell viability % (HF-P4 cells; HF-P4, 1 uM, 1 µM) of the same molecule?
Answer: 84.11% and 85.78%

Question: What about the Cell viability % (HF-P4 cells; HF-P4, 2.5 uM, 2.5 µM) of the same molecule?
Answer: 75.58% and 74.71%

Question: What about the Cell viability % (HF-P4 cells; HF-P4, 5 uM, 5 µM) of the same molecule?
Answer: 73.0472% and 65.6%

Question: And the Cell viability % (HF-P4 cells; HF-P4, 7.5 uM, 7.5 µM)?
Answer: 61.49% and 69.35%

Question: And the Cell viability % (HF-P4 cells; HF-P4, 10 uM, 10 µM)?
Answer: 61.41% and 64.7001%

Question: What about the Cell viability % (HF-P4 cells; HF-P4, 15 uM, 15 µM) of the same molecule?
Answer: 54.9% and 58.15%

Question: What about the Cell viability % (HF-P4 cells; HF-P4, 20 uM, 20 µM) of the same molecule?
Answer: 42.62% and 43.54%

Question: What about the IC50 (HF-P4 cells; Homo sapiens, MTT) of the same molecule?
Answer: 16.4 µM

Question: And the viability at 48 h, 0.5 µM ([1]; HF-P4, 500 nM)?
Answer: 103%

Question: And the viability at 48 h, 0.75 µM ([1]; HF-P4, 750 nM)?
Answer: 97.8%

Question: And the viability at 48 h, 1 µM ([1]; HF-P4, 1 uM)?
Answer: 84.4%

Question: And the viability at 48 h, 2.5 µM ([1]; HF-P4, 2.5 uM)?
Answer: 94.5%

Question: What about the viability at 48 h, 5 µM ([1]; HF-P4, 5 uM) of the same molecule?
Answer: 84.3%

Question: What about the viability at 48 h, 7.5 µM ([1]; HF-P4, 7.5 uM) of the same molecule?
Answer: 62.3%

Question: And the viability at 48 h, 10 µM ([1]; HF-P4, 10 uM)?
Answer: 66.1%

Question: What about the viability at 48 h, 15 µM ([1]; HF-P4, 15 uM) of the same molecule?
Answer: 62.5%

Question: What about the viability at 48 h, 20 µM ([1]; HF-P4, 20 uM) of the same molecule?
Answer: 48%
